“And” between values parts separate entries of the source, which are not always exact repeats. Equal entries are not always repeated.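 These data come from cells grown in 96-well plates and exposed to compound for 48 hours at five concentrations. GI50 is the concentration that inhibits growth by half. At the TGI there is no net growth.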
Tests used:
Assay in all cases: DTP human tumour cell line panel, 48 h
MCF7 breast = test system: MCF7 breast
BT-549 breast = test system: BT-549 breast
HOP-92 NSCLC = test system: HOP-92 NSCLC
PC-3 prostate = test system: PC-3 prostate
CAKI-1 renal = test system: CAKI-1 renal
M14 melanoma = test system: M14 melanoma
ACHN renal = test system: ACHN renal
HCT-15 colon = test system: HCT-15 colon
HCC-2998 colon = test system: HCC-2998 colon
MOLT-4 leukemia = test system: MOLT-4 leukemia

| SMILES | GI50 (MCF7 breast) [µM] | TGI (MCF7 breast) | GI50 (BT-549 breast) [µM] | TGI (BT-549 breast) [µM] | GI50 (HOP-92 NSCLC) [µM] | TGI (HOP-92 NSCLC) | GI50 (PC-3 prostate) [µM] | TGI (PC-3 prostate) [µM] | GI50 (CAKI-1 renal) [µM] | TGI (CAKI-1 renal) | GI50 (M14 melanoma) | TGI (M14 melanoma) | GI50 (ACHN renal) [µM] | TGI (ACHN renal) [µM] | GI50 (HCT-15 colon) [µM] | TGI (HCT-15 colon) | GI50 (HCC-2998 colon) [µM] | TGI (HCC-2998 colon) | GI50 (MOLT-4 leukemia) [µM] | TGI (MOLT-4 leukemia) [µM] |
| --- | --- | --- | --- | --- | --- | --- | --- | --- | --- | --- | --- | --- | --- | --- | --- | --- | --- | --- | --- | --- |
| CCN(CC)CCC(CNc1c2ccc(Cl)cc2nc2ccc(OC)cc12)c1ccccc1 (centres undefined) | 0.505 | 1.88 µM | 1.97 | 3.78 | 1.79 | 3.86 µM | 1.96 | 6.16 | 1.3 | 3.62 µM | 1.78 µM | 3.44 µM | 1.05 | 3.19 | 0.902 | 4.33 µM | 1.09 | 2.39 µM | 0.486 | 5 |
| CC1SC(c2cccc(Oc3ccccc3)c2)N(CCc2cccs2)C1=O (centres undefined) | 0.551 | 5.07 µM | 1.04 | 2.4 | 0.486 | 1.86 µM | 0.595 | 3.37 | 0.519 | 3.37 µM | 1.02 µM | 2.34 µM | 1.14 | 4.97 | 1.08 | 3.77 µM | 1.88 | 5.75 µM | 0.77 | 4.97 |
| O=C(CN1C(=O)c2ccccc2C1=O)NC1(C(=O)O)CCCC1 | – | > 100 µM | – | > 100 | – | – | – | > 100 | – | > 100 µM | – | > 100 µM | – | > 100 | – | > 100 µM | – | > 100 µM | – | > 100 |
| COC(=O)[C@@H](C)C[C@H](Cc1ccccc1)NC(=O)c1cccc([C@@H](C[C@H](C(C)C)N(C)C(=O)[C@@H](NC(=O)[C@H]2CCCCN2C)C(C)C)OC(C)=O)n1 | < 0.00167 | > 16.7 µM | 0.0025 | 0.101 | < 0.00167 | 0.114 µM | < 0.00167 | > 16.7 | 0.00173 | > 16.7 µM | < 0.00167 µM | 0.224 µM | < 0.00167 | > 16.7 | 0.00507 | > 16.7 µM | < 0.00167 | > 7.55 µM | 0.00815 | > 16.7 |
| C=CC(=O)N1CC[C@@H](Oc2nc(Nc3ccc(N4CCC(N5CCN(C)CC5)CC4)cc3)c(C(N)=O)nc2CC)C1 | > 100 | > 100 µM | > 100 | > 100 | > 100 | > 100 µM | > 100 | > 100 | – | – | > 100 µM | > 100 µM | > 100 | > 100 | > 100 | > 100 µM | > 100 | > 100 µM | > 100 | > 100 |
| COc1cccc2c1C(=N)c1c(O)c3c(c(O)c1C2=O)C[C@@](O)(C(C)=O)C[C@@H]3OC1CC(N)C(O)C(C)O1 (some centres undefined) | – | 24.8 µM and 13.4 µM | 1.66 | 16.2 | – | 2.71 µM and 3.58 µM | – | 2.98 | – | 1.37 µM and 1.03 µM and 4.86 µM | 0.705 µM and 0.206 µM | 4.58 µM and 1.59 µM | 0.472 | – | – | 28 µM and 32.8 µM | – | 2.48 µM and 3.14 µM and 0.541 µM | – | – |
| CCCCCCCCCCCCOC1C(C(COC2OC(C(O)CO)C3OC(C)(C)OC23)OC(=O)Nc2ccc([N+](=O)[O-])cc2)OC2OC(C)(C)OC21 (centres undefined) | 2.69 | 8.6 µM | 1.9 | 5.57 | 3.82 | 14.7 µM | 2.42 | 5.63 | 2.55 | 7.28 µM | 1.81 µM | 3.44 µM | 3.4 | 10.6 | 3.3 | 11.1 µM | 11.6 | 25.1 µM | – | – |
| Oc1c(Br)cc(Br)c2cccnc12 | 4.48 | > 100 µM | 4 | > 100 | – | – | 4.5 | > 100 | 2.29 | 6.79 µM | 2.14 µM | 5.11 µM | 3.48 | 18.6 | 4.84 | 31.1 µM | 3.61 | 18.8 µM | 3 | 8.49 |
| COc1ccc(/C=C2\CN(Cc3cn(CCCNc4ccnc5cc(Cl)ccc45)nn3)C/C(=C\c3ccc(OC)cc3)C2=O)cc1 | 2.01 | 10.1 µM | 3.78 | 12.9 | 0.962 | 15.9 µM | 2.9 | 17 | – | – | 4.15 µM | 16.2 µM | 12.9 | 25.6 | 1.83 | 5.14 µM | 13.8 | 27.9 µM | 2.55 | 9.4 |
| CCOC(=O)c1ccccc1NC(c1ccccc1)c1ccc2cccnc2c1O (centres undefined) | 2.98 | 45 µM | 4.25 | 16.7 | 7.98 | > 100 µM | 5.13 | > 100 | 3.05 | > 100 µM | – | – | 3.07 | > 100 | 2.11 | 23.5 µM | 5.77 | > 100 µM | 2.54 | > 100 |
| N#Cc1c(-c2ccc(Cl)cc2)n([O-])c2ccccc2[n+]1=O | 15.9 | > 100 µM | 23.2 | 52.3 | 1.61 | 3.24 µM | 3.26 | 13 | – | – | – | – | 4.2 | 16.8 | 13.7 | 37.5 µM | 13.3 | 26 µM | 2.31 | 4.77 |
| Cc1nn(-c2ccccc2)c2ncc3c(c12)C(=O)N(Cc1ccccc1)C3=O | > 100 | > 100 µM | 4.23 | 38.6 | – | – | 10.1 | > 100 | 2.43 | 5.97 µM | 4.98 µM | > 100 µM | 3.57 | 13.7 | > 100 | > 100 µM | > 100 | > 100 µM | 6.77 | 40.3 |

— PubChem BioAssay (NCI)
